According to the NIST ThermoML archive (doi:10.1016/j.jct.2014.02.012):
± gives the expanded uncertainty stated by the source.

Tests used:
[1] = 298.15 K; for surface tension liquid-gas: Wilhelmy plate method; for viscosity / mass density: 101.33 kPa, Liquid; for viscosity: Capillary tube (Ostwald / Ubbelohde) method; for mass density: Vibrating tube method
[2] = 100 kPa, Liquid mixture 1, Wilhelmy plate method

| SMILES | surface tension liquid-gas [1] | viscosity [1] | mass density [1] | interfacial tension ([2]; 298.15 K) | interfacial tension ([2]; 348.15 K) |
| --- | --- | --- | --- | --- | --- |
| CCCCCCCCCCCC [dodecane] | 24.9 ± 0.2 mN/m | 1.356 ± 0.029 mPa·s | 745.27 ± 0.24 kg/m3 |  |  |
| CCCCCCCCCCCC [dodecane] + O |  |  |  | 52.2 ± 0.3 mN/m | 49.6 ± 0.3 mN/m |
| O [water] | 72 ± 0.2 mN/m | 0.904 ± 0.019 mPa·s |  |  |  |
| CCCCCCCCCCCCCC[P+](CCCCCC)(CCCCCC)CCCCCC.O=S(=O)([N-]S(=O)(=O)C(F)(F)F)C(F)(F)F + O |  |  |  | 27.1 ± 0.2 mN/m | 25.6 ± 0.2 mN/m |
| CCCCCCCCCCCCCC[P+](CCCCCC)(CCCCCC)CCCCCC.O=S(=O)([N-]S(=O)(=O)C(F)(F)F)C(F)(F)F + CCCCCCCCCCCC |  |  |  | 0.9 ± 0.2 mN/m | 0.6 ± 0.2 mN/m |
| CCCCCCCCCCCCCC[P+](CCCCCC)(CCCCCC)CCCCCC.O=S(=O)([N-]S(=O)(=O)C(F)(F)F)C(F)(F)F | 30.9 ± 0.3 mN/m | 311.4 ± 11 mPa·s | 1065.5 ± 0.28 kg/m3 |  |  |
